Assay [1] concerns ERK phosphorylation in KYSE-520 cells. Briefly: Phospho-ERK cellular assay. The assay is classed as cell-based. The conditions noted are these: KYSE-520 cells, 2 h at 37° C., phospho-ERK1/2 (Thr202/Tyr204) TR-FRET, read-out: PERK IC50. In outline:
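TR-FRET read-out of ERK1/2 Thr202/Tyr204 phosphorylation was taken after overnight antibody incubation at room temperature. Before that, KYSE-520 cells were treated 2 h at 37 °C with compound dilutions and lysed 30 min. Percent inhibition relative to vehicle and cell-free wells was fitted four-parametrically to give IC50.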

For assay [2], the target named is SHP-2 enzyme (Met1-Leu525) (Homo sapiens (Human), UniProt Q06124). As to the kind of experiment: SHP2 inhibition enzymatic assay. The conditions noted are these: 0.5 nM SHP-2 activated by 500 nM IRS1 peptide, 75 μM DiFMUP substrate; read-out: SHP2wt-IC50. It is filed as biochemical. An outline of the steps: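 SHP-2 (Met1-Leu525), 0.5 nM, activated with 500 nM IRS1 bis-phosphopeptide, preincubated 30 min with compounds in HEPES pH 7.2 buffer with 5 mM DTT. 75 μM DiFMUP added for 30 min at room temperature, stopped with bpV; fluorescence read. IC50 from four-parameter logistic fit of % inhibition.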
Chain of SHP-2 enzyme (Met1-Leu525) (Q06124 1-525): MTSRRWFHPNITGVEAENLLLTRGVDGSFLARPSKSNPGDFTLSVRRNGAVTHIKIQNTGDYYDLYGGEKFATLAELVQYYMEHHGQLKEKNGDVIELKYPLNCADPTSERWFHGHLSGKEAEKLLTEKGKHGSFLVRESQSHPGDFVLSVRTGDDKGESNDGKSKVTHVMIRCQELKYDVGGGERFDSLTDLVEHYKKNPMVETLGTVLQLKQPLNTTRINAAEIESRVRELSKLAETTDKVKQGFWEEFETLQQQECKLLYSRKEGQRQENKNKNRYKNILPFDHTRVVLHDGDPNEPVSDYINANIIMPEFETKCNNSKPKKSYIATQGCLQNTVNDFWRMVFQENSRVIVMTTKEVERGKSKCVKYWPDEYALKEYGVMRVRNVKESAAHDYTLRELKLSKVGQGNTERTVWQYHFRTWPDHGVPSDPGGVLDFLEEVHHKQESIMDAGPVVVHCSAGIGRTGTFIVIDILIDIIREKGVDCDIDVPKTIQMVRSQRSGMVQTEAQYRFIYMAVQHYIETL

Where two headings read alike, the source gives them in different places.

As to `Cc1c(-c2n[nH]c3nc(N4CC[C@@H]5[C@H](C4)[C@@]5(CN)c4ccccc4C(F)(F)F)cnc23)ccc2nn(C)cc12` [Example 182, ((1S,6R,7R)-3-(3-(2,4-dimethyl-2H-indazol-5-yl)-1H-pyrazolo[3,4-b]pyrazin-6-yl)-7-(2-(trifluoromethyl)phenyl)-3-azabicyclo[4.1.0]heptan-7-yl)methanamine], the IC50 in assay [1] (Homo sapiens, KYSE-520, 2 h) is less than 1000 nM; in assay [2], less than 500 nM.

On to `Cc1csc(C2(CN)C3CCN(c4cnc5c(Sc6ccnc(N)c6Cl)n[nH]c5n4)CC32)n1` (stereo not drawn) [Example 93, 4-((6-(7-(aminomethyl)-7-(4-methylthiazol-2-yl)-3-azabicyclo[4.1.0]heptan-3-yl)-1H-pyrazolo[3,4-b]pyrazin-3-yl)thio)-3-chloropyridin-2-amine], for which the IC50 in assay [1] (Homo sapiens, KYSE-520, 2 h) was less than 1000 nM; in assay [2], less than 500 nM.

With `NC[C@]1(c2ccccc2F)[C@@H]2CCN(c3cnc4c(-c5ccc(C(N)=O)cc5Cl)n[nH]c4n3)C[C@@H]21` [Example 276, 4-(6-((1S,6R,7R)-7-(aminomethyl)-7-(2-fluorophenyl)-3-azabicyclo[4.1.0]heptan-3-yl)-1H-pyrazolo[3,4-b]pyrazin-3-yl)-3-chlorobenzamide], the IC50 in assay [1] (Homo sapiens, KYSE-520, 2 h) was less than 1000 nM; in assay [2], less than 500 nM.

Take `Cc1csc(C2(CN)[C@@H]3CN(c4cnc5c(-c6cccn7nccc67)n[nH]c5n4)C[C@@H]32)n1` (stereo partly drawn) [Example 482]: the values for the IC50 in assay [1] and in assay [2] were less than 1000 nM and less than 500 nM, respectively.

As to `CC1(C)C(=O)Nc2ccc(-c3n[nH]c4nc(N5CC[C@@H]6[C@H](C5)[C@@]6(CN)c5ccccc5F)cnc34)cc21` [Example 206, 5-(6-((1S,6R,7R)-7-(aminomethyl)-7-(2-fluorophenyl)-3-azabicyclo[4.1.0]heptan-3-yl)-1H-pyrazolo[3,4-b]pyrazin-3-yl)-3,3-dimethylindolin-2-one], the IC50 in assay [1] (Homo sapiens, KYSE-520, 2 h) was less than 1000 nM; in assay [2] it was less than 500 nM.

For `NC[C@]1(c2ccccc2F)[C@@H]2CCN(c3cnc4c(-c5ccc(O)c(F)c5)n[nH]c4n3)C[C@@H]21` [Example 331, 4-(6-((1S,6R,7R)-7-(aminomethyl)-7-(2-fluorophenyl)-3-azabicyclo[4.1.0]heptan-3-yl)-1H-pyrazolo[3,4-b]pyrazin-3-yl)-2-fluorophenol], the IC50 in assay [1] (Homo sapiens, KYSE-520, 2 h) is less than 1000 nM; in assay [2], less than 500 nM.

Turning to `COc1ccc(-c2n[nH]c3nc(N4CC[C@@H]5[C@H](C4)[C@@]5(CN)c4ccccc4F)cnc23)c2ccncc12` [Example 219, ((1S,6R,7R)-7-(2-fluorophenyl)-3-(3-(8-methoxyisoquinolin-5-yl)-1H-pyrazolo[3,4-b]pyrazin-6-yl)-3-azabicyclo[4.1.0]heptan-7-yl)methanamine], the IC50 is less than 1000 nM in assay [1] (Homo sapiens, KYSE-520, 2 h) and less than 500 nM in assay [2].

For `Cc1csc([C@@]2(CN)[C@@H]3CN(c4cnc5c(-c6ccc7nc(C)sc7c6Cl)n[nH]c5n4)C[C@@H]32)n1` [Example 461], the IC50 in assay [1] is less than 1000 nM; in assay [2], less than 500 nM.

With `COc1ccc(-c2n[nH]c3nc(N4CC[C@@H]5[C@H](C4)[C@@]5(CN)c4ccccc4F)cnc23)c2cccnc12` [Example 146, ((1S,6R,7R)-7-(2-fluorophenyl)-3-(3-(8-methoxyquinolin-5-yl)-1H-pyrazolo[3,4-b]pyrazin-6-yl)-3-azabicyclo[4.1.0]heptan-7-yl)methanamine], the concentration for half-maximal inhibition (IC50) in assay [1] (Homo sapiens, KYSE-520, 2 h) is less than 1000 nM; in assay [2], less than 500 nM.

As to `Cc1ccc([C@@]2(CN)[C@@H]3CN(c4cnc5c(-c6ccc7nn(C)cc7c6Cl)n[nH]c5n4)C[C@@H]32)nc1` [Example 493, ((1R,5S,6r)-3-(3-(4-chloro-2-methyl-2H-indazol-5-yl)-1H-pyrazolo[3,4-b]pyrazin-6-yl)-6-(5-methylpyridin-2-yl)-3-azabicyclo[3.1.0]hexan-6-yl)methanamine], the IC50 in assay [1] (Homo sapiens, KYSE-520, 2 h) was less than 1000 nM; in assay [2] it was less than 500 nM.

Consider `CC(C)n1cc2c(Cl)c(-c3n[nH]c4nc(N5CC[C@@H]6[C@H](C5)[C@@]6(CN)c5ccccc5F)cnc34)ccc2n1` [Example 280, ((1S,6R,7R)-3-(3-(4-chloro-2-isopropyl-2H-indazol-5-yl)-1H-pyrazolo[3,4-b]pyrazin-6-yl)-7-(2-fluorophenyl)-3-azabicyclo[4.1.0]heptan-7-yl)methanamine], for which the half-maximal inhibitory concentration (IC50) in assay [1] (Homo sapiens, KYSE-520, 2 h) was less than 1000 nM; in assay [2], less than 500 nM.

As to `Cc1cccc([C@@]2(CN)[C@@H]3CN(c4cnc5c(-c6ccc7nn(C)cc7c6Cl)n[nH]c5n4)C[C@@H]32)n1` [Example 496, ((1R,5S,6r)-3-(3-(4-chloro-2-methyl-2H-indazol-5-yl)-1H-pyrazolo[3,4-b]pyrazin-6-yl)-6-(6-methylpyridin-2-yl)-3-azabicyclo[3.1.0]hexan-6-yl)methanamine], the IC50 was less than 1000 nM in assay [1] (Homo sapiens, KYSE-520, 2 h) and less than 500 nM in assay [2].

Take `Cn1cc2c(Cl)c(-c3n[nH]c4nc(N5CC[C@@H]6[C@H](C5)[C@@]6(CN)c5c(F)cccc5F)cnc34)ccc2n1` [Example 117, ((1S,6R,7R)-3-(3-(4-chloro-2-methyl-2H-indazol-5-yl)-1H-pyrazolo[3,4-b]pyrazin-6-yl)-7-(2,6-difluorophenyl)-3-azabicyclo[4.1.0]heptan-7-yl)methanamine]: the IC50 in assay [1] (Homo sapiens, KYSE-520, 2 h) was less than 1000 nM; in assay [2], less than 500 nM.

For the compound `NC[C@]1(c2ccccc2F)[C@@H]2CCN(c3cnc4c(-c5cccc(-c6cnccn6)c5Cl)n[nH]c4n3)C[C@@H]21` [Example 158, ((1S,6R,7R)-3-(3-(2-chloro-3-(pyrazin-2-yl)phenyl)-1H-pyrazolo[3,4-b]pyrazin-6-yl)-7-(2-fluorophenyl)-3-azabicyclo[4.1.0]heptan-7-yl)methanamine], the IC50 in assay [1] (Homo sapiens, KYSE-520, 2 h) was less than 1000 nM; in assay [2], less than 500 nM.

Consider `Cc1conc1C1(CN)C2CCN(c3cnc4c(-c5cccc(Cl)c5Cl)n[nH]c4n3)CC21` (stereo not drawn) [Example 14, (3-(3-(2,3-dichlorophenyl)-1H-pyrazolo[3,4-b]pyrazin-6-yl)-7-(4-methylisoxazol-3-yl)-3-azabicyclo[4.1.0]heptan-7-yl)methanamine], for which the IC50 in assay [1] (Homo sapiens, KYSE-520, 2 h) is less than 1000 nM; in assay [2] it was less than 500 nM.

Take `Cc1c(-c2n[nH]c3nc(N4CC[C@@H]5[C@H](C4)[C@@]5(CN)c4ccc(F)cc4F)cnc23)ccc2nn(C)cc12` [Example 199, ((1S,6R,7R)-7-(2,4-difluorophenyl)-3-(3-(2,4-dimethyl-2H-indazol-5-yl)-1H-pyrazolo[3,4-b]pyrazin-6-yl)-3-azabicyclo[4.1.0]heptan-7-yl)methanamine]: the IC50 in assay [1] (Homo sapiens, KYSE-520, 2 h) is less than 1000 nM; in assay [2], less than 500 nM.

As to `COc1cc2ccc(-c3n[nH]c4nc(N5CC[C@@H]6[C@H](C5)[C@@]6(CN)c5ccccc5F)cnc34)cc2nn1` [Example 262, ((1S,6R,7R)-7-(2-fluorophenyl)-3-(3-(3-methoxycinnolin-7-yl)-1H-pyrazolo[3,4-b]pyrazin-6-yl)-3-azabicyclo[4.1.0]heptan-7-yl)methanamine], the IC50 in assay [1] (Homo sapiens, KYSE-520, 2 h) was less than 1000 nM; in assay [2], less than 500 nM.

For `NC[C@]1(c2ccccc2F)[C@@H]2CCN(c3cnc4c(-c5ccc6ccc(=O)[nH]c6c5Cl)n[nH]c4n3)C[C@@H]21` [Example 237, 7-(6-((1S,6R,7R)-7-(aminomethyl)-7-(2-fluorophenyl)-3-azabicyclo[4.1.0]heptan-3-yl)-1H-pyrazolo[3,4-b]pyrazin-3-yl)-8-chloroquinolin-2(1H)-one], the IC50 in assay [1] (Homo sapiens, KYSE-520, 2 h) was less than 1000 nM; in assay [2], less than 500 nM.

For the origin of these results see patent publication US20240109900A1, “AZABICYCLIC SHP2 INHIBITORS” (IRBM S.P.A., priority 2021, published 2024).
